Key:
LSK Flk2^− cells [1] = test: 10-day culture of bone marrow MNCs with PI3K inhibitor, CHIR99021 or without insulin, expansion of LSK Flk2^− cells; type: cell-based, mouse; details: 10 days culture; 250 nM CHIR99021; NVP-BEZ235 at indicated concentrations
[2] = tested on: lethally irradiated (10 Gy) CD45.1^+ recipient mice; test: Transplantation of cultured sorted LSK Flk2^− cells into lethally irradiated recipients, donor engraftment; type: in vivo, mouse; details: 28-day cultures, 1000 re-sorted LSK Flk2^− cells + 2×10^5 competitor cells; peripheral blood 4 weeks post-transplant
[3] = tested on: lethally irradiated recipients; test: Serial transplantation of cultured MNCs without rescue/competitor cells; type: in vivo, mouse
Description: FIGS. 27A-C show ex vivo expansion of normal, long-term repopulating HSC. MNCs containing a known quantity of LSK Flk2^− cells were cultured for 14 days with and without CHIR99021. The cultured progeny of MNCs containing a pre-culture dosage of 0.1, 0.3 or 1.0 LSK Flk2^− cells were transplanted into lethally irradiated recipients along with 1×10^5 rescue/competitor cells (n=10 for each of 6 groups). Peripheral blood was analyzed at 16 weeks post-transplant and competitive repopulating unit (CRU) frequency was determined using L-Calc software (Stem Cell Technologies, Inc.) based on Poisson statistics (Zhang, C. C. & Lodish, H. F. Murine hematopoietic stem cells change their surface phenotype during ex vivo expansion. Blood, Vol. 105, pages 4314-4320 (2005); Miller, C. L. & Eaves, C. J. Expansion in vitro of adult murine hematopoietic stem cells with transplantable lympho-myeloid reconstituting ability. Proceedings of the National Academy of Sciences of the United States of America, Vol. 94, pages 13648-13653 (1997)). […] Fresh MNCs containing 5 or 500 LSK Flk2^− cells, or the progeny of MNCs containing 5 LSK Flk2^− cells cultured for 14 days with and without CHIR99021, were transplanted into lethally irradiated recipients without rescue/competitor cells. At 16-17 weeks post-transplant, bone marrow isolated from 1° recipients was transplanted into 2° recipients and, at 16-17 weeks post-secondary transplant, from 2° into 3° recipients at a dosage of 1×10^6 cells per mouse. Peripheral blood was analyzed for percent donor repopulation at 16 weeks post-1°, 2°, and 3° transplant (upper panels) and percent mature donor-derived B, T and myeloid cells (lower panels).
For competitive repopulation assays, 1×10^5 bone marrow cells congenic with the host (CD45.1^+) were included per mouse. 100 μl of cultured cells or cells freshly isolated and quantified in the same manner were transplanted into lethally irradiated (10 Grays, single dose) Protein tyrosine phosphatase, receptor type, C (Ptprc or CD45.1) recipient mice through the tail vein using an insulin syringe (29 gauge). Mice were placed on Batril® water (Bayer Healthcare, LLC, Shawnee Mission, Kans.) 3 days prior to irradiation which continued for 2 weeks post-irradiation. Repopulation was measured every 4 weeks post-transplant by collection of peripheral blood, red blood cell lysis and staining of CD45.1 (recipient) vs. CD45.2 (donor) engraftment. […] Multi-lineage reconstitution was determined by CD3, B220 (for T and B lymphoid, respectively) and Gr1, Mac-1 (for myeloid) gating on donor (CD45.2^+) cells. […] Bone marrow cells were counted and transplanted as above at a dosage of 1×10^6 per mouse. […]

LSK Flk2^− cells [4] = test: Ex vivo culture of sorted LSK Flk2^− cells with GSK-3β and PTEN inhibitors, expansion by FACS; type: cell-based, mouse
Description: LSK or LSK Flk2^− cells were sorted into 96-well U-bottom tissue culture plates at 100 cells/well with 200 μl media/well. Cells were incubated at 37° C., 5% O2, 5% CO2 (balance N2) for the indicated number of days. One-half total volume of media (see Table 1, below for the base media) was carefully pipetted from the top and replaced with fresh media every other day.
One hundred LSK Flk2^− cells were sorted from wild-type (C57Bl/6) mice and cultured in (1) media, (2) media+1 μM CHIR99021 (a GSK-3β inhibitor, a gift from Dr. Sheng Ding), (3) media+200 nM Dipotassium Bis-peroxo(picolinato)oxovanadate (BpV(pic), a PTEN inhibitor, available from Calbiochem, Cat. No. 203705), (4) media+1 μM CHIR99021+200 nM BpV(pic), (5) media+200 nM Shikonin (also a PTEN inhibitor, available from Calbiochem, Cat. No. 565850), and (6) media+200 nM Shikonin+1 μM CHIR99021. (FIGS. 3B-C). Cells were cultured as described above. Cells were examined at 17 days of culture (FIG. 3B, original magnification 100×) and 23 days (FIG. 3C, original magnification 40×).
LSK Flk2^− cells at 28 days culture in the indicated media conditions were examined (FIG. 3D, original magnification 200×).
FACS analysis of 28 day LSK Flk2^− cells cultured in media+BpV(pic)+CHIR99021 (FIG. 3E) was performed. Cells were pre-gated on live, lineage negative cells.
Fold expansion of LSK Flk2^− cells after 28 days culture in (1) media, (2) media+BpV(pic), (3) media+CHIR99021, and (4) media+CHIR99021+BpV(pic) were analyzed.
Cells cultured for 9 days in (1) media, (2) media+BpV(pic) (200 nM), (3) media+CHIR99021 (100 nM), and (4) media+CHIR99021 (100 nM)+BpV(pic) (200 nM) were re-sorted for LSK Flk2^− cells, and fold expansion of LSK Flk2^− cells after 9 days culture in the indicated conditions was determined (FIG. 3I).
FACS analysis was performed on 9 day LSK Flk2^− cells cultured in media+BpV(pic) (200 nM)+CHIR99021 (100 nM) (FIG. 3J). Cells were pre-gated on live, lineage negative cells.

LSK Flk2^− cells [5] = test: 14-day ex vivo expansion of bone marrow MNCs in ST media with or without GSK3β inhibitor, FACS; type: cell-based, mouse; details: 14-day culture of MNCs; average; FIG. 26B (250 nM CHIR99021)
Description: For the experiments set forth in this Example, a particular HSC expansion media was used. This HSC expansion media consists of the following ingredients: (1) StemSpan Media (Stem Cell Technologies; Cat. No. 09600) (StemSpan Media consists of Iscove's-modified Dulbecco's medium (IMDM) supplemented with 1% bovine serum albumin, 10 μg/ml recombinant human insulin, 200 μg/ml iron-saturated transferrin, 0.1 mM 2-mercaptoethanol and 2 mM glutamine.); (2)10 μg/ml Heparin (Sigma; Cat. No. H-3149); (3) 0.5× Penicillin/Streptomycin (Sigma; Cat. No. P4333); (4) 10 ng/ml recombinant mouse (rm) or recombinant human (rh) Stem Cell Factor (SCF) (Biovision; Cat. No. 4328-10 or 4327-10, respectively); (5) 20 ng/ml rm or rh Thrombopoietin (Tpo) (Cell Sciences, Inc; Cat. No. CRT401B or CRT400B, respectively). CHIR99021 (250 nM) (Stemgent, Inc; Cat. No. 04-0004) may be added to this HSC expansion media as indicated.
Bone marrow cells were harvested from C57Bl/6 (CD45.2) mice and made into a single cell suspension by gently drawing through a 22 g needle several times. Mobilized peripheral blood or bone marrow from human patients was harvested at the University of Kansas Medical Center (Kansas City, Mo. USA). […] Mononuclear cells were isolated from mouse bone marrow using Histopaque 1077 (Sigma; Cat. No. 10771) and human blood or bone marrow using Ficoll-Paque PLUS (Stem Cell Technologies; Cat. No. 07917) according to the manufacturers' instructions. Cells were washed and resuspended in HSC expansion media. Cells were counted and a fraction of mononuclear cells (MNCs) were stained for lineage markers using CD3, CD4, CD8, B220, IgM, Mac-1, Gr1, and Ter119 antibodies along with Kit, Sca-1, and Flk2 for mouse HSC analysis or CD34 and CD38 for human HSC analysis. 1×10^6 cells/0.1 ml were stained at 4° C. for 30 minutes using 0.05 μg of antibody for each lineage marker and 0.2 μg for remaining antibodies. […] Frequency of putative HSCs (lineage negative, Sca-1^+, Kit^+, Flk-1^− for mouse or CD34^+, CD38^− cells for human) was determined by analyzing >3×10^6 cells per sample independently in triplicate. […]

With `Cc1c[nH]c(-c2cnc(NCCNc3ccc(C#N)cn3)nc2-c2ccc(Cl)cc2Cl)n1` [CHIR99021] the “Expansion of LSK Flk2^− cells” value (LSK Flk2^− cells [1]) was “increased the expansion”, the “Mice showing >1% engraftment” value [2] was 4/8 and the “Dose of fresh, unexpanded cells giving equivalent long-term repopulation” value ([3]; 16 weeks post-secondary transplantation, 5 versus 500 putative HSCs) was 100 fold. The “Repopulation of tertiary recipients” value ([3]; 16 weeks post-tertiary transplant, versus 100× uncultured cells) was “equivalent levels of repopulation with no statistical difference between the two groups”, the “Survival of tertiary recipients” value ([3]; Kaplan-Meier, FIG. 27C) was “survival rates similar to tertiary recipients of 100× uncultured cells” and the “Donor reconstitution at 16 weeks post-secondary transplant” value ([3]; secondary lethally-irradiated recipients, 1×10^6 bone marrow cells) was 90.6±4.8%. For the same compound, the “Expansion of LSK cells compared to control (photographs)” value (LSK Flk2^− cells [4]; 17 and 23 days culture, 1 μM CHIR99021, 200 nM BpV(pic)) was “greater expansion of LSK cells”, the “Expansion of LSK Flk2^− cells compared to media without inhibitor” value (LSK Flk2^− cells [4]; 28 days culture) was “significant expansion” and the “Increase in total number of LSK Flk2^− cells” value (LSK Flk2^− cells [5]) was 93 fold.
